In PubChem BioAssay (NCI):
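Cultured in 96-well plates, cells were exposed to test compound for 48 hours across five concentrations. The concentration for 50% growth inhibition is given as GI50. TGI is the concentration that stops growth completely.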

Legend:
Assay in all cases: NCI tumour cell line growth inhibition, 48 h
[1] = tested on: SF-268 CNS
[2] = tested on: SNB-75 CNS
[3] = tested on: EKVX NSCLC
[4] = tested on: NCI-H23 lung
[5] = tested on: OVCAR-8 ovarian
[6] = tested on: HOP-62 NSCLC
[7] = tested on: IGROV1 ovarian
[8] = tested on: HL-60(TB) leukemia
[9] = tested on: OVCAR-3 ovarian
[10] = tested on: NCI/ADR-RES ovarian

Compound: O=C1C2C3CCC(C2C(=O)N1CO)C1C2C(=O)N(CO)C(=O)C2C31 (stereo not drawn)
- TGI [1]: > 86.3 µM
- TGI [2]: > 100 µM
- TGI [3]: > 100 µM
- TGI [4]: > 100 µM
- TGI [5]: > 67.6 µM
- TGI [6]: > 100 µM
- TGI [7]: > 100 µM
- TGI [8]: 31.1 µM
- TGI [9]: > 100 µM

Compound: Cc1ccc(S(=O)(=O)NC(=O)C#CCOC2CCCCO2)cc1 (stereo not drawn)
- TGI [2]: > 100 µM
- TGI [3]: > 100 µM
- TGI [4]: > 100 µM
- TGI [5]: > 100 µM
- TGI [8]: > 100 µM
- TGI [9]: > 100 µM

Compound: O=C1C(Cl)=C(Nc2cccc(O)c2)C(=O)N1c1ccc(Cl)cc1Cl
- GI50 [10]: 32.2 µM
- TGI [10]: > 100 µM
- GI50 [1]: 28.4 µM
- TGI [1]: > 100 µM
- GI50 [3]: 57.3 µM
- TGI [3]: > 100 µM
- GI50 [4]: 24.9 µM
- TGI [4]: 88.7 µM
- GI50 [5]: 28 µM
- TGI [5]: 64.2 µM
- GI50 [6]: 32.8 µM
- TGI [6]: > 100 µM
- GI50 [7]: 22.5 µM
- TGI [7]: 51.5 µM

Compound: CCOC(=O)/C(=C/c1ccc(Cl)cc1)N(CC)CC
- TGI [1]: > 100 µM
- TGI [2]: > 100 µM
- TGI [3]: > 100 µM
- TGI [4]: > 100 µM
- TGI [5]: > 100 µM
- TGI [6]: > 100 µM
- TGI [7]: > 100 µM
- TGI [8]: > 100 µM

Compound: O=c1nc(-c2ccccc2)scc1-c1ccccc1
- TGI [1]: > 100 µM
- TGI [2]: > 100 µM
- TGI [3]: > 100 µM
- TGI [4]: > 100 µM
- TGI [5]: > 100 µM
- TGI [6]: > 100 µM
- TGI [7]: > 100 µM
- TGI [8]: > 100 µM
- TGI [9]: > 100 µM

Compound: COc1cccc(N2C(=O)[C@H]3[C@H]4CC(C(C)(C)C)CC[C@H]4c4c([nH]c5ccccc45)[C@H]3C2=O)c1 (stereo partly drawn)
- TGI [1]: 54.7 µM
- TGI [2]: 30.1 µM
- TGI [3]: 40.6 µM
- TGI [4]: 40.9 µM
- TGI [5]: 29.7 µM
- TGI [6]: 31.7 µM
- TGI [7]: 39.1 µM
- TGI [8]: > 100 µM
- TGI [9]: 36.2 µM

Compound: Cc1cc2c(=O)c3ccccc3oc2c(C#N)c1C
- TGI [10]: > 100 µM
- TGI [1]: > 100 µM
- TGI [2]: > 100 µM
- TGI [3]: > 100 µM
- TGI [4]: > 100 µM
- TGI [5]: > 100 µM
- TGI [6]: > 100 µM
- TGI [7]: > 100 µM
- TGI [8]: > 100 µM

Compound: CO[C@]12CCC(=O)N1C=Cc1c2[nH]c2ccccc12
- TGI [1]: > 100 µM
- TGI [2]: > 100 µM
- TGI [3]: > 100 µM
- TGI [4]: > 100 µM
- TGI [5]: > 100 µM
- TGI [6]: > 100 µM
- TGI [7]: > 100 µM
- TGI [8]: > 100 µM
- TGI [9]: > 100 µM

Compound: CNc1ccc(C(=O)CC(O)CCC(C)C2OC(=O)CC(O)CC(=O)CC(O)CC(O)CC(O)CC(O)CC3(O)CC(O)C(C(=O)NCCc4ccccn4)C(CC(OC4OC(C)C(O)C(N)C4O)/C=C/C=C/C=C/C=C\C=C/C=C/C=C/C2C)O3)cc1 (stereo not drawn)
- GI50 [1]: 0.141 µM
- TGI [1]: 0.439 µM
- GI50 [2]: > 50 µM
- TGI [2]: > 50 µM
- GI50 [3]: 0.134 µM
- TGI [3]: 0.49 µM
- GI50 [4]: 0.118 µM
- TGI [4]: 0.271 µM
- GI50 [5]: 0.747 µM
- TGI [7]: > 50 µM
- GI50 [8]: 5.01 µM
- TGI [8]: 30.2 µM
- GI50 [9]: 0.643 µM
- TGI [9]: 2.16 µM

Compound: O=C(CC(=O)c1cccc([N+](=O)[O-])c1)C(=O)Nc1nc([N+](=O)[O-])cs1
- TGI [1]: > 100 µM
- TGI [3]: > 100 µM
- TGI [4]: > 100 µM
- TGI [5]: > 100 µM
- TGI [6]: > 100 µM
- TGI [7]: > 100 µM
- TGI [8]: > 100 µM
- TGI [9]: > 100 µM

Compound: NC(=O)OCC(COc1ccc(Cl)cc1)OC(=O)c1cc([N+](=O)[O-])cc([N+](=O)[O-])c1 (stereo not drawn)
- TGI [1]: > 100 µM
- TGI [2]: > 100 µM
- TGI [3]: > 100 µM
- TGI [4]: > 100 µM
- TGI [5]: > 100 µM
- TGI [6]: > 100 µM
- TGI [7]: > 100 µM
- TGI [8]: > 100 µM
- TGI [9]: > 100 µM

Compound: Cc1nn(-c2ccccc2)c(C)c1/C=N/N1CCN(Cc2ccccc2)CC1
- GI50 [10]: 50.3 µM
- TGI [10]: > 100 µM
- GI50 [1]: 38 µM
- TGI [1]: > 100 µM
- GI50 [2]: 99 µM
- TGI [2]: > 100 µM
- GI50 [3]: > 100 µM
- TGI [3]: > 100 µM
- GI50 [4]: 41.7 µM
- TGI [4]: > 100 µM
- GI50 [5]: > 100 µM
- TGI [5]: > 100 µM
- GI50 [6]: 16.3 µM
- TGI [6]: 74.4 µM
- GI50 [8]: 28.7 µM
- TGI [8]: 63 µM

Compound: CN1CCc2cc(O)c3cc2C1Cc1ccc(cc1)Oc1cc(ccc1O)CC1c2c(cc4c(c2O3)OCO4)CCN1C (stereo not drawn)
- TGI [1]: > 100 µM
- TGI [2]: 39.4 µM
- TGI [3]: 70.7 µM
- TGI [4]: > 100 µM
- TGI [5]: 48.9 µM
- TGI [7]: > 100 µM
- TGI [8]: 38.8 µM
- TGI [9]: > 100 µM

Compound: Cc1[nH]c2ccccc2c1C1=CC(=O)C=CC1=O
- GI50 [10]: 10.9 µM
- TGI [10]: 28.4 µM
- GI50 [1]: 13.1 µM
- TGI [1]: 27.4 µM
- GI50 [2]: 9.19 µM
- TGI [2]: 34.7 µM
- GI50 [3]: 17.7 µM
- TGI [3]: 45 µM
- GI50 [4]: 13 µM
- TGI [4]: 31.5 µM
- GI50 [5]: 13.2 µM
- TGI [5]: 34.9 µM
- GI50 [7]: 12 µM
- TGI [7]: 27.2 µM
- GI50 [9]: 2.16 µM
- TGI [9]: 4.6 µM

Compound: CC(=O)OCc1c(C)c2ccccc2n1C(C)=O
- TGI [1]: > 100 µM
- TGI [2]: > 100 µM
- TGI [3]: > 100 µM
- TGI [4]: > 100 µM
- TGI [5]: > 100 µM
- TGI [6]: > 100 µM
- TGI [7]: > 100 µM
- TGI [8]: 66.9 µM
- TGI [9]: 62.8 µM

Compound: O=C(NCCCCCCNC(=O)NC1OCC(O)C(O)C1O)NC1OCC(O)C(O)C1O (stereo not drawn)
- TGI [1]: > 100 µM
- TGI [2]: > 100 µM
- TGI [3]: > 100 µM
- TGI [4]: > 100 µM
- TGI [5]: > 100 µM
- TGI [6]: > 100 µM
- TGI [7]: > 100 µM
- TGI [8]: > 100 µM
- TGI [9]: > 100 µM

Compound: CSC1CC2C(CC1(C)SC)C2(C)C (stereo not drawn)
- TGI [1]: > 100 µM
- TGI [2]: 83.9 µM
- TGI [3]: > 100 µM
- TGI [4]: > 100 µM
- TGI [5]: > 100 µM
- TGI [6]: > 100 µM
- TGI [7]: > 100 µM
- TGI [8]: 58 µM
- TGI [9]: > 100 µM

Compound: N=C(N)c1ccc(-c2ccc(-c3ccc(Cl)c(Cl)c3)o2)nc1
- GI50 [1]: 2.08 µM
- TGI [1]: 4.73 µM
- GI50 [2]: 1.35 µM
- TGI [2]: 2.69 µM
- GI50 [3]: 1.86 µM
- TGI [3]: 3.76 µM
- GI50 [4]: 2.02 µM
- TGI [4]: 4.59 µM
- GI50 [7]: 1.86 µM
- TGI [7]: 3.59 µM
- GI50 [8]: 2.24 µM
- TGI [8]: 5.09 µM

Compound: COc1cc2c(cc1OC)C1(c3ccccc3)ON=C(c3ccccc3)N1CS2 (stereo not drawn)
- TGI [1]: > 100 µM
- TGI [2]: > 100 µM
- TGI [3]: > 100 µM
- TGI [4]: > 100 µM
- TGI [6]: > 100 µM
- TGI [7]: > 100 µM
- TGI [8]: > 100 µM
- TGI [9]: > 100 µM

Compound: CC1=C2[C@@H](c3ccccc3)C3C=CC2(c2ccccc23)N(C(=O)Nc2cccc3ccccc23)C1=O (stereo partly drawn)
- TGI [1]: > 100 µM
- TGI [3]: > 100 µM
- TGI [4]: > 100 µM
- TGI [5]: > 100 µM
- TGI [6]: > 100 µM
- TGI [7]: > 100 µM
- TGI [8]: > 100 µM
- TGI [9]: > 100 µM

Compound: CS(=O)(=O)N(CC(=O)O)Cc1ccccc1
- TGI [10]: > 100 µM
- TGI [1]: > 100 µM
- TGI [2]: > 100 µM
- TGI [3]: > 100 µM
- TGI [4]: > 100 µM
- TGI [5]: > 100 µM
- TGI [6]: > 100 µM
- TGI [7]: > 100 µM
- TGI [9]: > 100 µM
